Earlier results as cited in patent publication US20180179476A1, “SOLVENT COMPOSITIONS FOR USE AS HEPTANE REPLACEMENTS” (TBF ENVIRONMENTAL TECHNOLOGY INC., priority 2015, published 2018).

stability (in the presence of strong aqueous bases or aqueous acids): not stable
solubility in water (room temperature): 25%
Compound: COC(C)=O [Methyl acetate]
